Source: patent publication US20230339915A1 (Vertex Pharmaceuticals Incorporated, priority 2020, published 2023)

How the values were obtained:
[1] = molecular target: purified Z-AAT protein from human plasma (Homo sapiens (Human), UniProt P01009, E366K); experiment: Biochemical Assay (Z-AAT Elastase Activity Assay); settings: purified Z-AAT pre-incubated with compound 1 hour, then human neutrophil elastase and fluorescent substrate
Source text: B. Biochemical Assay (Z-AAT Elastase Activity Assay)
This assay measured the modulation of Compounds 1-227 on Z-AAT SERpIN activity using purified Z-AAT protein and purified human neutrophil elastase (hNE). Normally, when active monomeric Z-AAT encounters a protease such as trypsin or elastase, it forms a 1:1 covalent “suicide” complex in which both the AAT and protease are irreversibly inactivated. However, compounds binding to Z-AAT can lead to a decrease in SERpIN activity. In such cases, when a protease encounters compound-bound Z-AAT, the protease cleaves and inactivates Z-AAT without itself being inactivated.
Reagents • PBS buffer (media prep)+0.01% BRIJ35 detergent (Calbiochem catalog #203728) Opti-MEM media (Fisher 11058-021) • Human neutrophil elastase (hNE, Athens Research #16-14-051200) • 3.4 μM stock (0.1 mg/mL) prepared in 50 mM Na Acetate, pH 5.5, 150 mM NaCl, stored at −80° C. • Elastase substrate V (ES V, fluorescent peptide substrate MeOSuc-Ala-Ala-Pro-Val-AMC, Calbiochem catalog #324740) • 20 mM stock in DMSO, stored at −20° C. • Purified Z-AAT protein from human plasma; • 12.9 μM (0.67 mg/mL) Z-AAT Vertex Cambridge Sample 4942, from patient • #061-SSN, stored at −80 C
Plates • Corning 4511 (384 well black low volume)
Instruments • PerkinElmer® EnVision™
Pre-Incubation of Z-AAT with Compounds • 1. 7.5 μL of Z-AAT (20 nM) was incubated with compounds 1-227 in a GCA plate for 1 hour at room temperature
Addition of hNE • 1. 7.5 ul of HNE solution (3 nM in PBS+0.01% BRIJ35) added into GCA plate • 2. Incubate plate for 30 minutes to allow Z-AAT/HNE suicide complex formation.
Addition of Substrate and Read Plate on PE Envision • 1. 7.5 μL of substrate (300 μM solution of elastase substrate (ES V) in PBS+0.01% BRIJ35) dispensed per well into GCA plate • 2. Immediately read on Envision.

[2] = molecular target: NL20 human bronchial epithelial cells expressing human Z-AAT (Homo sapiens (Human), UniProt P01009, E366K); experiment: AAT Function Assay (MSD Assay NL20-SI Cell Line); type: cell-based; settings: functionally active AAT (AAT-hNE complex, MSD) in supernatant of NL20 cells expressing human Z-AAT; read-out: NL20 Functional EC50
Experimental: A. AAT Function Assay (MSD Assay NL20-SI Cell Line)
Alpha-1 antitrypsin (AAT) is a SERpIN (serine protease inhibitor) that inactivates enzymes by binding to them covalently. This assay measured the amount of functionally active AAT in a sample in the presence of the disclosed Compounds 1-227 by determining the ability of AAT to form an irreversible complex with human neutrophil Elastase (hNE). In practice, the sample (cell supernatant, blood sample, or other) was incubated with excess hNE to allow AAT-Elastase complex to be formed with all functional AAT in the sample. This complex was then captured to a microplate coated with an anti-AAT antibody. The complex captured to the plate was detected with a labeled anti-Elastase antibody and quantitated using a set of AAT standards spanning the concentration range present in the sample. Meso Scale Discovery (MSD) plate reader, Sulfo-tag labeling, and microplates were used to provide high sensitivity and wide dynamic range.
Instrument(S): • Meso Sector S600 • Bravo • Washer dispenser • Multidrop Combi
Day 1 Cell Culture • 1. Harvest NL20 human bronchial epithelial cells expressing human Z-AAT in OptiMEM™ containing Pen/Strep (P/S) • 2. Seed at 16,000 cells/well in 30 μL (384 well plate) • 3. Centrifuge plates briefly up to speed (1200 rpm) and place into 37° C. incubator overnight
Day 2: Compound Addition and Coating Plates with Capture Antibody
Compound Addition: • 1. Dispense 40 μL of OptiMEM™ (P/S) with doxycycline (1:1000 stock=0.1 μM final) to each well of the compound plate using a multidrop Combi in hood • 2. Remove cell plate from incubator, flip/blot and take immediately to Bravo to transfer compounds • 3. Return plates to incubator overnight
Coat MSD Plates • 1. Dilute capture antibody (Polyclonal Goat anti-AAT) to 5 μg/mL (1:200) in PBS (no BSA). • 2. Dispense 25 μL of diluted capture antibody into all wells of MSD 384-well High Bind plate using the Multidrop equipped with a standard cassette. • 3. Incubate overnight at 4° C.
Prepare Blocker A (BSA) Solutions • 1. Prepare solution of 5% MSD Blocker A (BSA) following the manufacturer's instructions. • 2. Further dilute the 5% MSD Blocker A in PBS to 1% (Blocker A) as needed.
Block Plates • 1. Wash plate 1× with 50 μL Wash buffer (PBS+0.5% Tween 20), and adds 35 μL 5% Block A buffer to block non-specific binding on washer dispenser • 2. Rotate plates on shaker for 1 hour at 600 rpm
Prepare M-AA T Standards • 1. Dilute M-AAT stock to 1.6 μg/mL in 1% BSA Blocker A (Stock in −70° C.); then prepare 12×1:2 serial dilutions in 1% Blocker A • 2. The top starting final concentration on MSD plate is 320 ng/mL. These dilutions correspond to a final concentration of 320, 160, 80, 40, 20, 10, 5, 2.5, 1.25, 0.625, 0.312, 0.156 ng/mL.
Dilution Plate • 1. Add 80 μL of 1% Assay buffer to all wells except columns 1/24 (standards) with Multidrop Combi • 2. Add diluted standards to columns 1 and 24 • 3. Centrifuge dilution plates 1200 rpm briefly
Cell Plate • 1. Aspirate columns which will have the standards from the cell plates in the hood using 16-pin aspirator
Prepare Human Neutrophil Elastase (hNE) • 1. Prepare 1 μg/mL Human Neutrophil Elastase by diluting in 1% Blocker A. • a. Small 100 μg vial—add 1 mL PBS (100 μg/mL) • i. This can then be diluted 1:100 in 1% Assay Buffer for a final 1 μg/mL concentration
MSD—add hNE (20 μL/well) • 1. After the MSD plate has blocked for at least 1 hour, wash plate 1× with 50 μL Wash buffer (PBS+0.5% Tween 20) and then add 20 μL hNE to each well
Bravo—Cell Plate—Dilution Plate—MSD Plate
Using the Bravo aspirate 10 μL from the cell plate, transfer to the dilution plate (9-fold dilution) • 1. Mix 25 μL 3×, then aspirate 5 μL, transfer to MSD plate (5-fold dilution) • 2. Mix 10 μL 3×. Total dilution is 45 fold. • 3. Shake plates at 600 rpm for 1.5 hours
Add Functional Detection hNE Antibody • 1. Wash plate 1× with wash buffer • 2. […]

Chain of purified Z-AAT protein from human plasma (P01009 25-418 E366K limits assumed): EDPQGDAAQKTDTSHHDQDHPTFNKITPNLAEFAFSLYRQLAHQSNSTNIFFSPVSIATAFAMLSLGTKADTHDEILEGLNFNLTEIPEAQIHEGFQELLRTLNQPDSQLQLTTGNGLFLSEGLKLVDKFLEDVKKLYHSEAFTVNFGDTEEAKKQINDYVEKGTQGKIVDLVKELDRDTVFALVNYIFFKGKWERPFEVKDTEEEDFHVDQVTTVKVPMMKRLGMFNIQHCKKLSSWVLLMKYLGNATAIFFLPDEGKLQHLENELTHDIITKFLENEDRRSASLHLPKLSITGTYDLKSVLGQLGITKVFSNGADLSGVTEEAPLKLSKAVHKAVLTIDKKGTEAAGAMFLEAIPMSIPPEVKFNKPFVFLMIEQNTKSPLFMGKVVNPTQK
Chain of NL20 human bronchial epithelial cells expressing human Z-AAT (P01009 25-418 E366K limits assumed): as above

| Structure (SMILES) | IC50 [1] [µM] | EC50 [2] [nM] |
| --- | --- | --- |
| O=C(O)[C@]1(C(F)(F)F)C[C@@H](c2c(C3CCOCC3)n(-c3ccc(F)c(Cl)c3)c3ccc(O)cc32)C1 [Compound 37] | > 5 | 500 to 2000 |
| O=C(O)[C@]1(C(F)(F)F)C[C@H](c2c(C3CCOCC3)n(-c3ccc(F)c(Cl)c3)c3ccc(O)cc32)C1 [Compound 38] | > 30 | > 2000 |
| C[C@]1(C(=O)O)C[C@H](c2c(C3CCOCC3)n(-c3ccc(F)c(F)c3)c3ccc(O)cc32)C1 [Compound 39] | > 30 | > 2000 |
| C[C@]1(C(=O)O)C[C@@H](c2c(C3CCOCC3)n(-c3ccc(F)c(F)c3)c3ccc(O)cc32)C1 [Compound 40] | > 30 | > 2000 |
| O=C(O)[C@H]1CC2(C1)C[C@H](c1c(C3CCOCC3)n(-c3ccc(F)c(F)c3)c3ccc(O)cc31)C2 (some centres unmarked) [Compound 41] | > 30 | 500 to 2000 |
| O=C(O)[C@H]1CC2(C1)C[C@H](c1c(C3CCOCC3)n(-c3ccc(F)c(F)c3)c3ccc(O)cc31)C2 (some centres unmarked) [Compound 42] | > 30 | 500 to 2000 |
| Cc1cc(-n2c(C3CCS(=O)(=O)CC3)c([C@H]3C[C@@](C(=O)O)(C(F)(F)F)C3)c3cc(O)ccc32)ccc1F [Compound 43] | > 30 | > 2000 |
| Cc1cc(-n2c(C3CCS(=O)(=O)CC3)c(C[C@H]3CC[C@H](C(=O)O)CC3)c3cc(O)ccc32)ccc1F [Compound 44] | > 30 | > 2000 |
| O=C(O)[C@H]1C[C@H](c2c(C3CCOCC3)n(-c3ccc(F)cc3)c3ccc(O)cc32)C1 [Compound 45] | > 30 | > 2000 |
| O=C(O)[C@H]1C[C@@H](c2c(C3CCOCC3)n(-c3ccc(F)cc3)c3ccc(O)cc32)C1 [Compound 46] | > 30 | > 2000 |
| Cc1cc(-n2c(C3CCS(=O)(=O)CC3)c(C3CC4(CC(C(=O)O)C4)C3)c3cc(O)ccc32)ccc1F (centres unmarked) [Compound 47] | > 30 | > 2000 |
| C[C@]1(C(=O)O)C[C@H](c2c(C3CCOCC3)n(-c3ccc(F)cc3)c3ccc(O)cc32)C1 [Compound 48] | > 30 | > 2000 |
| C[C@]1(C(=O)O)C[C@@H](c2c(C3CCOCC3)n(-c3ccc(F)cc3)c3ccc(O)cc32)C1 [Compound 49] | > 30 | > 2000 |
| O=C(O)[C@H]1CC2(C1)C[C@H](c1c(C3CCOCC3)n(-c3ccc(F)cc3)c3ccc(O)cc31)C2 (some centres unmarked) [Compound 50] | > 30 | 500 to 2000 |
| O=C(O)[C@H]1CC2(C1)C[C@H](c1c(C3CCOCC3)n(-c3ccc(F)cc3)c3ccc(O)cc31)C2 (some centres unmarked) [Compound 51] | > 30 | 500 to 2000 |
| C[C@]1(C(=O)O)C[C@@H](c2c(C3CCOCC3)n(-c3ccccc3)c3ccc(O)cc32)C1 [Compound 52] | > 30 | > 2000 |
| O=C(O)[C@]1(C(F)(F)F)C[C@@H](c2c(C3CCOCC3)n(-c3ccc(F)c(F)c3)c3ccc(O)cc32)C1 [Compound 53] | > 30 | > 2000 |
| O=C(O)C1CC2(C1)CC(c1c(C3CCOCC3)n(-c3ccccc3)c3ccc(O)cc13)C2 (centres unmarked) [Compound 54] | > 30 | > 2000 |
| Cc1cc(-n2c(C3CCOCC3)c([C@H]3CC[C@@H](C(=O)O)CC3)c3cc(O)ccc32)ccc1F [Compound 55] | > 30 | > 2000 |
| Cc1cc(-n2c(C3CCOCC3)c([C@H]3CC[C@H](C(=O)O)CC3)c3cc(O)ccc32)ccc1F [Compound 56] | > 30 | 500 to 2000 |
| CC(C)c1c([C@H]2CC3(C[C@H](C(=O)O)C3)C2)c2cc(O)ccc2n1-c1ccc(F)c(F)c1 (some centres unmarked) [Compound 57] | < 2 | < 500 |
| CC(C)c1c([C@H]2CC3(C[C@H](C(=O)O)C3)C2)c2cc(O)ccc2n1-c1ccc(F)c(F)c1 (some centres unmarked) [Compound 58] | 2 to 5 | 500 to 2000 |
| Cc1cc(-n2c(C(C)C)c(CCC(F)(F)C(=O)O)c3cc(O)ccc32)ccc1F [Compound 59] | > 5 | > 2000 |
| Cc1cc(-n2c(C(C)C)c([C@H]3C[C@@](C(=O)O)(C(F)(F)F)C3)c3cc(O)ccc32)ccc1F [Compound 60] | > 5 | < 500 |
| Cc1cc(-n2c(C(C)C)c([C@H]3C[C@](C(=O)O)(C(F)(F)F)C3)c3cc(O)ccc32)ccc1F [Compound 61] | > 5 | 500 to 2000 |
| Cc1cc(-n2c(C(C)C)c(CCC(C)(C)C(=O)O)c3cc(O)ccc32)ccc1F [Compound 62] | > 30 | 500 to 2000 |
| Cc1cc(-n2c(C(C)C)c([C@H]3C[C@@H](CC(=O)O)C3)c3cc(O)ccc32)ccc1F [Compound 63] | > 5 | 500 to 2000 |
| Cc1cc(-n2c(C(C)C)c(C3CCOC(C(=O)O)C3)c3cc(O)ccc32)ccc1F (centres unmarked) [Compound 64] | > 30 | > 2000 |
